# Test results published in patent US11325913B2, “Compounds and methods for the treatment of malaria” (THE BROAD INSTITUTE, INC., priority 2013, dated 2022).
# Tested on: P. falciparum Dd2
# Experiment: Activity against the Dd2 strain of P. falciparum (SYBR Green I, 72 h)
# Type: cell-based
# Settings: P. falciparum Dd2, 72 h incubation
# Protocol: The Dd2 strain of P. falciparum was cultured in complete medium (RPMI with L-glutamine, 4.3% heat-inactivated O-positive human serum, 2.08 mg/ml albumax, 0.013 mg/ml hypoxanthine, 1.17 mg/ml glucose, 0.18% NaHCO3, 0.031 M Hepes, 2.60 mM NaOH, and 0.043 mg/ml gentamicin) until the parasitemia reached 3-8%. Parasitemia was determined by checking at least 500 red blood cells from a Giemsa-stained blood smear. The Dd2 cultures along with tested O-positive red blood cells were centrifuged at room temperature at 2,000 rpm for 5 minutes using an Eppendorf centrifuge 5810R with an A-4-81 rotor. The medium was aspirated off. For the compound screening, a parasite dilution at a 1% parasitemia and 1.0% hematocrit was created with screening medium (RPMI with L-glutamine, 4.16 mg/ml albumax II, 0.013 mg/ml hypoxanthine, 1.73 mg/ml glucose, 0.18% NaHCO3, 0.031 M Hepes, 2.60 mM NaOH, and 0.043 mg/ml gentamicin). The suspension was gassed with 93% nitrogen, 4% carbon dioxide, and 3% oxygen and placed at 37° C. until needed. Using a liquid dispenser, 20 μl of screening medium was dispensed into 384-well, black, clear-bottom plates. With a PinTool, 100 nl of compounds dissolved in DMSO was transferred into the assay plates along with control compound (mefloquine). Next, 30 μl of the parasite suspension in screening medium was then dispensed into the assay plates such that the final parasitemia was 1% and the final hematocrit was 1.0%. Final concentration of DMSO was 0.125%. Mefloquine at a final concentration of 20 μM and DMSO at a final concentration of 0.125% were used within the assay plates to serve as background and baseline controls, respectively. The assay plates were transferred to incubators (93% nitrogen, 4% carbon dioxide, and 3% oxygen during the 72 h incubation at 37° C.). Ten microliters of detection reagent consisting of 10×SYBR Green I (Invitrogen; supplied in 10,000× concentration) in lysis buffer (20 mM Tris-HCl, 5 mM EDTA, 0.16% Saponin wt/vol, 1.6% Triton X vol/vol) was dispensed into the assay plates. For optimal staining, the assay plates were left at room temperature for 24 h in the dark. The assay plates were read by using an Envision (PerkinElmer) reader, with 505 dichroic mirrors with 485-nm excitation and 530-nm emission settings, and the plate reads were from the bottom.
# By following the above-described protocol, the 50% effective concentration (EC50) for compounds 1-95 was measured against P. falciparum Dd2 and the results are shown in Table 2: […]
row,EC50,SMILES
1,156 nM,"O=C(Nc1ccc(F)cc1)N1CCCCN2[C@H](CO)[C@H](c3ccc(C#Cc4ccccc4)cc3)[C@@H]2C1 [Compound 54, (8R,9R,10S)-N-(4-fluorophenyl)-10-(hydroxymethyl)-9-[4-(2-phenylethynyl)phenyl]-1,6-diazabicyclo[6.2.0] decane-6-carboxamide]"

# Same assay, conditions: Plasmodium falciparum, DD2, 72 h, P. falciparum Dd2, 72 h incubation
row,SMILES,EC50
1,"COc1ccc(NC(=O)N2CCCCN3[C@H](C(=O)O)[C@H](c4ccc(C#Cc5ccccc5)cc4)[C@@H]3C2)cc1 [Compound 53, (8R,9R,10S)-6-[(4-methoxyphenyl)carbamoyl]-9-[4-(2-phenylethynyl)phenyl]-1,6-diazabicyclo[6.2.0] decane-10-carboxylic acid]",2770 nM
2,"O=C(Nc1cccnc1)N1CCCCN2[C@H](CO)[C@H](c3ccc(C#Cc4ccccc4)cc3)[C@@H]2C1 [Compound 59, (8R,9R,10S)-10-(hydroxymethyl)-9-[4-(2-phenylethynyl)phenyl]-N-(pyridin-3-yl)-1,6-diazabicyclo[6.2.0] decane-6-carboxamide]",2700 nM
3,"COc1ccc(N(C)C(=O)N2CCCCN3[C@H](CO)[C@H](c4ccc(C#Cc5ccccc5)cc4)[C@@H]3C2)cc1 [Compound 62, (8R,9R,10S)-10-(hydroxymethyl)-N-(4-methoxyphenyl)-N-methyl-9-[4-(2-phenylethynyl)phenyl]-1,6-diazabicyclo[6.2.0] decane-6-carboxamide]",4430 nM
4,"COc1ccc(CN2CCCCN3[C@H](CO)[C@H](c4ccc(C#Cc5ccccc5)cc4)[C@@H]3C2)cc1 [Compound 63, [(8R,9R,10S)-6-[(4-methoxyphenyl)methyl]-9-[4-(2-phenylethynyl)phenyl]-1,6-diazabicyclo[6.2.0]decan-10-yl]methanol]",1230 nM
5,"COc1ccc(NC(=O)N2CCCCN3[C@H](CO)[C@H](c4ccc(-c5cccnc5)cc4)[C@@H]3C2)cc1 [Compound 64, (8R,9R,10S)-10-(hydroxymethyl)-N-(4-methoxyphenyl)-9-[4-(pyridin-3-yl)phenyl]-1,6-diazabicyclo[6.2.0] decane-6-carboxamide]",1010 nM
6,"COc1ccc(NC(=O)N2CCCCN3[C@H](CO)[C@H](c4ccc(-c5ccn(-c6ccccc6)c5)cc4)[C@@H]3C2)cc1 [Compound 66, (8R,9R,10S)-10-(hydroxymethyl)-N-(4-methoxyphenyl)-9-[4-(1-phenyl-1H-pyrrol-3-yl)phenyl]-1,6-diazabicyclo[6.2.0] decane-6-carboxamide]",1310 nM
7,"COc1ccc(NC(=O)N2CCCCN3[C@H](CO)[C@H](c4ccc(-c5cccc(F)c5)cc4)[C@@H]3C2)cc1 [Compound 67, (8R,9R,10S)-9-[4-(3-fluorophenyl)phenyl]-10-(hydroxymethyl)-N-(4-methoxyphenyl)-1,6-diazabicyclo[6.2.0] decane-6-carboxamide]",19500 nM
8,"COc1ccc(NC(=O)N2CCCCN3[C@H](CO)[C@H](c4ccc(-c5ccncc5)cc4)[C@@H]3C2)cc1 [Compound 69, (8R,9R,10S)-10-(hydroxymethyl)-N-(4-methoxyphenyl)-9-[4-(pyridin-4-yl)phenyl]-1,6-diazabicyclo[6.2.0] decane-6-carboxamide]",19500 nM

# Next, values leading:
row,EC50,SMILES
1,110 nM,"COc1ccc(NC(=O)N2CCCCN3[C@H](CNC(C)=O)[C@H](c4ccc(C#Cc5ccccn5)cc4)[C@@H]3C2)cc1 [Compound 65, (8R,9S,10S)-10-(acetamidomethyl)-N-(4-methoxyphenyl)-9-{4-[2-(pyridin-2-yl)ethynyl]phenyl}-1,6-diazabicyclo[6.2.0] decane-6-carboxamide]"
2,104 nM,"COc1ccc(NC(=O)N2CCCCN3[C@H](CN4CC(C)(O)C4)[C@H](c4ccc(C#Cc5ccccc5)cc4)[C@@H]3C2)cc1 [Compound 73, (8R,9S,10S)-10-[(3-hydroxy-3-methylazetidin-1-yl)methyl]-N-(4-methoxyphenyl)-9-[4-(2-phenylethynyl)phenyl]-1,6-diazabicyclo[6.2.0] decane-6-carboxamide]"
3,98 nM,"COc1ccc(NC(=O)N2CCCCN3[C@H](CN)[C@H](c4ccc(C#Cc5ccccn5)cc4)[C@@H]3C2)cc1 [Compound 57, (8R,9S,10S)-10-(aminomethyl)-N-(4-methoxyphenyl)-9-{4-[2-(pyridin-2-yl)ethynyl]phenyl}-1,6-diazabicyclo[6.2.0] decane-6-carboxamide]"
4,80 nM,COc1cccc(NC(=O)N2CCCCN3[C@H](CO)[C@H](c4ccc(C#Cc5ccccc5)cc4)[C@@H]3C2)c1 [Compound 56]
5,61 nM,"COc1ccc(NC(=O)N2CCCCN3[C@H](CO)[C@H](c4ccc(C#Cc5cccnc5)cc4)[C@@H]3C2)cc1 [Compound 60, (8R,9R,10S)-10-(hydroxymethyl)-N-(4-methoxyphenyl)-9-{4-[2-(pyridin-3-yl)ethynyl]phenyl}-1,6-diazabicyclo[6.2.0] decane-6-carboxamide]"
6,47 nM,"CNC[C@@H]1[C@H](c2ccc(C#Cc3ccccc3)cc2)[C@@H]2CN(C(=O)Nc3ccc(OC)cc3)CCCCN12 [Compound 61, (8R,9S,10S)-N-(4-methoxyphenyl)-10-[(methylamino)methyl]-9-[4-(2-phenylethynyl)phenyl]-1,6-diazabicyclo[6.2.0] decane-6-carboxamide]"
7,34 nM,"COc1ccc(NC(=O)N2CCCCN3[C@H](CO)[C@H](c4ccc(C#Cc5ccc(F)c(F)c5)cc4)[C@@H]3C2)cc1 [Compound 71, (8R,9R,10S)-9-{4-[2-(3,4-difluorophenyl)ethynyl]phenyl}-10-(hydroxymethyl)-N-(4-methoxyphenyl)-1,6-diazabicyclo[6.2.0] decane-6-carboxamide]"
8,17 nM,"COc1ccc(NC(=O)N2CCCCN3[C@@H](CO)[C@H](c4ccc(C#Cc5ccccc5)cc4)[C@@H]3C2)cc1 [Compound 52, (8R,9R,10R)-10-(hydroxymethyl)-N-(4-methoxyphenyl)-9-[4-(2-phenylethynyl)phenyl]-1,6-diazabicyclo[6.2.0] decane-6-carboxamide]"
9,17 nM,"COc1ccc(NC(=O)N2CCCCN3[C@H](CO)[C@H](c4ccc(C#Cc5ccccc5F)cc4)[C@@H]3C2)cc1 [Compound 72, (8R,9R,10S)-9-{4-[2-(2-fluorophenyl)ethynyl]phenyl}-10-(hydroxymethyl)-N-(4-methoxyphenyl)-1,6-diazabicyclo[6.2.0] decane-6-carboxamide]"
10,13 nM,"COc1ccc(NC(=O)N2CCCCN3C[C@H](c4ccc(C#Cc5ccccc5)cc4)[C@@H]3C2)cc1 [Compound 70, (8R,9S)-N-(4-methoxyphenyl)-9-[4-(2-phenylethynyl)phenyl]-1,6-diazabicyclo[6.2.0] decane-6-carboxamide]"
11,6 nM,"COc1ccc(NC(=O)N2CCCCN3[C@H](CNC(C)=O)[C@H](c4ccc(C#Cc5ccccc5)cc4)[C@@H]3C2)cc1 [Compound 58, (8R,9S,10S)-10-(acetamidomethyl)-N-(4-methoxyphenyl)-9-[4-(2-phenylethynyl)phenyl]-1,6-diazabicyclo[6.2.0] decane-6-carboxamide]"
12,5 nM,"COc1ccc(NC(=O)N2CCCCN3[C@H](CN4CCOCC4)[C@H](c4ccc(C#Cc5ccccc5)cc4)[C@@H]3C2)cc1 [Compound 55, (8R,9S,10S)-N-(4-methoxyphenyl)-10-(morpholin-4-ylmethyl)-9-[4-(2-phenylethynyl)phenyl]-1,6-diazabicyclo[6.2.0] decane-6-carboxamide]"
